pIC50, pKi: −log10 of the molar value.

This assay has as its target T1, hα4 and β1 integrins (Homo sapiens, UniProt P05556+P13612).
T1 construct: expressed in transfected cells; host or cells: CHO cells
Description: In vitro inhibition of binding between CHO cells expressing hα4 and β1 integrins and Eu3+-hVCAM-1 D1D7-IgG. The note with it: for pKi: CHO cells expressing hα4 and β1 integrins, Eu3+-hVCAM-1 D1D7-IgG ligand, without HSA; for pIC50: in the presence of 3% human serum albumin (HSA final concentration 3%). How it is done: CHO cells which forcibly expressed hα4 and β1 integrins through transfection thereof, were inoculated into a Costar 3599 plate (3×10^4 cells/100 μl/well), and cultured for two days. The cells in the wells were washed two times with buffer A*, and then Eu^3+-hVCAM-1 D1D7-IgG diluted with assay buffer** to 2 nM was added in an amount of 50 μl/well. The substance under test diluted with 26 DMSO-assay buffer (in the co-presence or absence of 6% human serum albumin) was added in an amount of 50 μl/well (adding separately diluted solution to the wells for performing Scatchard analysis), the contents were stirred for 5 minutes with a plate mixer, and then the plate was left to stand still for one hour at room temperature. The binding inhibitory activity in the presence of human serum albumin (HSA) was examined by diluting the specimen with 26 DMSO-assay buffer containing 6% HSA (SIGMA Corp., c/n A-1653), and adding the resultant (HSA final concentration 3%). After 30 to 60 minutes of the addition of specimen, the plate contents were washed 4 times with buffer A at 4° C., an enhancing reagent (DELFIA SA) was added in an amount of 100 μl/well, and the plate was shaken for 5 minutes using a plate mixer. Subsequently, the fluorescence intensity was measured with a time-resolved fluorometer (DELFIA Wallac). The IC50 of the substance under test (the concentration for 50% inhibition of the binding between CHO cells and Eu^3+-hVCAM-1 D1D7-IgG) was determined from the binding rate obtained from the calculating expression of [(FT−FNS)−(FI−FNS)]/[(FT−FNS)]×100. Here, FT represents the fluorescence intensity of a well not containing the substance under test; FNS represents the fluorescence intensity of a well not containing the substance under test and hVCAM-1 D1D7-IgG; and FI represents the fluorescence intensity of a well containing the substance under test. The Kd value which represents the strength of binding, and Bmax (maximum binding amount) were estimated to be in the range of 0.06 to 20 nM according to the Scatchard analysis method. The evaluation results of the Ki value of the substance under test, and of the IC50 value in the presence of 3% HSA are presented in Tables 2 to 7.
The Ki value was calculated according to the above-described expression. ([L] is the ligand concentration)
[* buffer A: 25 mM HEPES (pH 7.5), 150 mM NaCl, 1 mM Ca^2+, 1 mM Mg^2+, 4 mM Mn2+;
** assay buffer: 25 mM HEPES (pH=7.5), 150 mM NaCl, 1 mM Ca^2+, 1 mM Mg^2+, 4 mM Mn^2+, 0.1% BSA, 20 μM DTPA, with/without 6% ALBUMIN, HUMAN SERUM (C/N A-1653, SIGMA)]

T1 sequence (P13612 34-1032): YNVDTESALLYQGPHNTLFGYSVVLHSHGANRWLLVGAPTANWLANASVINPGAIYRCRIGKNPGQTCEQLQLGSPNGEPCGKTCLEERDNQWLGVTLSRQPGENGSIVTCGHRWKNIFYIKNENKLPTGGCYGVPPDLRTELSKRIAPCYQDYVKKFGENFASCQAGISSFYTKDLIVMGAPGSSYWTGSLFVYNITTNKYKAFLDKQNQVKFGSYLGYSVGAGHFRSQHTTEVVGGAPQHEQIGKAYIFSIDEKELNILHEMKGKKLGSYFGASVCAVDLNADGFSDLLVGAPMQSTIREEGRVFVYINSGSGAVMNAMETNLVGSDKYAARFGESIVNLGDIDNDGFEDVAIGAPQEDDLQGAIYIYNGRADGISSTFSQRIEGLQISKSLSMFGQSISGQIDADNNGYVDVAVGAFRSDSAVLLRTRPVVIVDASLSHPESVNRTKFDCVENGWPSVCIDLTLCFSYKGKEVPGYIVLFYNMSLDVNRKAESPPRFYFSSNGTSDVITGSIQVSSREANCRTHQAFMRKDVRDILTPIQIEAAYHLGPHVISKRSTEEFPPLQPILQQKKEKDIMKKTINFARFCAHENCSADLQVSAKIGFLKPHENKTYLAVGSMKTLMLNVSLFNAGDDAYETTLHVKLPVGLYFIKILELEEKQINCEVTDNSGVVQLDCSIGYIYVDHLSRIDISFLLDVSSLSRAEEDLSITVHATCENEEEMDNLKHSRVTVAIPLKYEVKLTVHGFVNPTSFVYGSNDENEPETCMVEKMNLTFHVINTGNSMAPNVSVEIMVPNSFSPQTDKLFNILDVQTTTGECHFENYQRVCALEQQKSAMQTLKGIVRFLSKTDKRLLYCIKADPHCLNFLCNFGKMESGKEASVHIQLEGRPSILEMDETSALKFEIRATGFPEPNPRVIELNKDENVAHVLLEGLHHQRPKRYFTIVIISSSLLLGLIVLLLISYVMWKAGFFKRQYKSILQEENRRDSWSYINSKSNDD
T1 sequence (P05556 21-798): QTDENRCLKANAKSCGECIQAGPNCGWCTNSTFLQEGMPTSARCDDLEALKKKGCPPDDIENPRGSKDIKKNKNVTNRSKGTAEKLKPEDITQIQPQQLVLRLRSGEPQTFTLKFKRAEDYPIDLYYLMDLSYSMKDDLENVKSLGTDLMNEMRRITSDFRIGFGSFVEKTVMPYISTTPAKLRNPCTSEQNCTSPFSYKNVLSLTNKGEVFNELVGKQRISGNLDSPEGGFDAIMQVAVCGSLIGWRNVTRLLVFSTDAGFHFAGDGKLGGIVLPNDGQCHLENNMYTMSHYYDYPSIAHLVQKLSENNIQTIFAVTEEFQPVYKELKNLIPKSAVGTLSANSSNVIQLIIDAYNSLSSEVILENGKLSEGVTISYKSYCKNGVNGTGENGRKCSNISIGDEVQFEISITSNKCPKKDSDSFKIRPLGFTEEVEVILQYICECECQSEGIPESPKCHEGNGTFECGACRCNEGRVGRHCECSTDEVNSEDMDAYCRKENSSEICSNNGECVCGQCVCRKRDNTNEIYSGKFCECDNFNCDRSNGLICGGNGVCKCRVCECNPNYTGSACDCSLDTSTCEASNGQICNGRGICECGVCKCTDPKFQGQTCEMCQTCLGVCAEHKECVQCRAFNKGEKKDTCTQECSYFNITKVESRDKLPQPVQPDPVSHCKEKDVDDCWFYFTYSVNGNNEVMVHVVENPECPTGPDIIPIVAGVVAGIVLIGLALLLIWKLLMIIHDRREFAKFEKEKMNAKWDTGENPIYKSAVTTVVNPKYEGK

The pKi is the Ki on a negative log10 scale, so that one unit is a factor of ten. Low readings indicate a high Ki, high ones a low Ki. The term pIC50 denotes the IC50 on a negative log10 scale, so that one unit is a factor of ten. Turning to `Cn1cc(C(=O)Nc2cc(Cl)c(CC(=O)N3C[C@@H](N4CCN(CC5CC5)CC4)C[C@H]3CO[C@H]3CC[C@H](C(=O)O)CC3)cc2Cl)c2ccccc21` [Example 115, Trans-4-[1-[[2,5-dichloro-4-[(1-methyl-1H-indol-3-ylcarbonyl)amino]phenyl]acetyl]-(4S)-[(4-cyclopropylmethyl)piperazin-1-yl]-(2S)-pyrrolidinylmethoxy]cyclohexanecarboxylic acid], the pKi was 8.38 and the pIC50 was 7.89.
For `O=C(Nc1cc(F)c(CC(=O)N2C[C@@H](N3C[C@H]4C[C@H]4C3)C[C@H]2CO[C@H]2CC[C@H](C(=O)O)CC2)cc1Cl)c1csc2ccccc12` [Example 71, Trans-4-[1-[[4-[(benzo[b]thiophen-3-ylcarbonyl)amino]-5-chloro-2-fluorophenyl]acetyl]-(4S)-[3-azabicyclo[3.1.0]hexan-3-yl]-(2S)-pyrrolidinylmethoxy]cyclohexanecarboxylic acid], in that order: 8.12 and 7.55.
For `C[C@@H]1CN([C@H]2C[C@@H](CO[C@H]3CC[C@H](C(=O)O)CC3)N(C(=O)Cc3cc(Cl)c(NC(=O)c4csc5ccccc45)cc3F)C2)C[C@H](C)O1` [Example 79, Trans-4-[1-[[4-[(benzo[b]thiophen-3-ylcarbonyl)amino]-5-chloro-2-fluorophenyl]acetyl]-(4S)-(cis-2,6-dimethylmorpholin-4-yl)-(2S)-pyrrolidinylmethoxy]cyclohexanecarboxylic acid], in that order: 9.13 and 8.39.
For `CCN1CCN([C@H]2C[C@@H](CO[C@H]3CC[C@H](C(=O)O)CC3)N(C(=O)Cc3cc(Cl)c(NC(=O)c4csc5ccccc45)cc3F)C2)CC1=O` [Example 154, Trans-4-[1-[[4-[(benzo[b]thiophen-3-ylcarbonyl)amino]-5-chloro-2-fluorophenyl]acetyl]-(4S)-(4-ethyl-3-oxopiperazin-1-yl)-(2S)-pyrrolidinylmethoxy]cyclohexanecarboxylic acid], in that order: 9.04 and 8.04.
With `O=C(Nc1cc(F)c(CC(=O)N2C[C@@H](N3CCN(CC(F)(F)F)CC3)C[C@H]2CO[C@H]2CC[C@H](C(=O)O)CC2)cc1Cl)c1csc2ccccc12` [Example 123, Trans-4-[1-[[4-[(benzo[b]thiophen-3-ylcarbonyl)amino]-5-chloro-2-fluorophenyl]acetyl]-(4S)-[4-(2,2,2-trifluoroethyl)piperazin-1-yl]-(2S)-pyrrolidinylmethoxy]cyclohexanecarboxylic acid], the pKi is 8.74 and the pIC50 was 8.00.
Consider `O=C(Nc1cc(Cl)c(CC(=O)N2C[C@@H](N3CCN(CC(F)(F)F)CC3)C[C@H]2CO[C@H]2CC[C@H](C(=O)O)CC2)cc1Cl)c1coc2ccccc12` [Example 125, Trans-4-[1-[[4-[(benzo[b]furan-3-ylcarbonyl)amino]-2,5-dichlorophenyl]acetyl]-(4S)-[4-(2,2,2-trifluoroethyl)piperazin-1-yl]-(2S)-pyrrolidinylmethoxy]cyclohexanecarboxylic acid], for which the pKi is 8.47 and the pIC50 was 7.59.
Regarding `O=C(Nc1cc(Cl)c(CC(=O)N2C[C@@H](N3CCN(CC(F)(F)F)CC3)C[C@H]2CO[C@H]2CC[C@H](C(=O)O)CC2)cc1Cl)c1c[nH]c2ccccc12` [Example 129, Trans-4-[1-[[2,5-dichloro-4-[(1H-indol-3-ylcarbonyl)amino]phenyl]acetyl]-(4S)-[4-(2,2,2-trifluoroethyl)piperazin-1-yl]-(2S)-pyrrolidinylmethoxy]cyclohexanecarboxylic acid], the pKi is 9.03 and the pIC50 is 8.72.
